Data from patent US9169217B2, “Arylalkyl esters of 4-amino-6-(substituted phenyl)-picolinates and 6-amino-2-(substituted phenyl)-pyrimidinecarboxylates and their use as selective herbicides for crops” (Dow AgroSciences LLC, priority 2011, dated 2015).

Legend:
[1] = test system: Scirpus juncoides ROXB. (Japanese bulrush); assay: Postemergence foliar-applied herbicidal activity in direct seeded rice (Example 16); type: in vivo; conditions: Schoenoplectiella juncoides, post-emergence, 504 h; rice cropping systems, foliar-applied, 17.5 g ae/ha, 21 DAA; may represent multiple trials; read-out: Visual Injury (%) SCPJU
Outline: (§1)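 Greenhouse plants at 2nd–3rd true leaf stage (10–17 d, ~29/26 °C, 14-h photoperiod) sprayed postemergence with ester forms in acetone–DMSO plus 1.25% crop oil concentrate at 187 L/ha. Visual injury scored 0–100% versus untreated plants after 3 weeks; GR50/GR80 derived by probit analysis.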

[2] = test system: Sesbania exaltata (RAF.) CORY/RYDB. (hemp sesbania); assay: as above; type: in vivo; conditions: rice cropping systems, 17.5 g ae/ha, 21 DAA, may represent multiple trials
Outline: as §1

[3] = test system: Echinochloa colonum (L.) LINK (junglerice); assay: as above; type: in vivo; conditions: Echinochloa colona, post-emergence, 504 h, rice cropping systems, 17.5 g ae/ha, 21 DAA, may represent multiple trials, read-out: Visual Injury (%) ECHCO
Outline: as §1

[4] = test system: Aeschynomene sensitive SW./L. (sensitive jointvetch); assay: as above; type: in vivo; conditions: rice cropping systems, 17.5 g ae/ha, 21 DAA, may represent multiple trials
Outline: as §1

[5] = test system: Cyperus iria L. (rice flatsedge); assay: as above; type: in vivo; conditions: rice cropping systems, 17.5 g ae/ha, 21 DAA, may represent multiple trials
Outline: as §1

[6] = test system: Echinochloa crus-galli (L.) P.BEAUV. (barnyardgrass); assay: as above; type: in vivo; conditions: rice cropping systems, 17.5 g ae/ha, 21 DAA, may represent multiple trials
Outline: as §1

[7] = test system: Cyperus esculentus L. (yellow nutsedge); assay: as above; type: in vivo; conditions: rice cropping systems, 17.5 g ae/ha, 21 DAA, may represent multiple trials
Outline: as §1

[8] = test system: Scirpus juncoides ROXB. (Japanese bulrush); assay: In-water applied herbicidal activity in transplanted paddy rice (Example 17); type: in vivo; conditions: Schoenoplectiella juncoides, 504 h; rice cropping systems, in-water applied (paddy), 35 g ae/ha, 21 DAA; may represent multiple trials; read-out: Visual Injury (%) SCPJU
Outline: (§2)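 Ester forms of test compounds, in acetone diluted with aqueous Agri-dex (final 1.25% v/v crop oil concentrate), were injected into the flood water of paddy pots holding weeds or rice at the 2nd–3rd leaf stage in mud (pH ~7.3–7.8). Visual injury versus untreated plants was scored 0–100% after 3 weeks in greenhouse (~29/26 °C). GR50/GR80 were derived by probit analysis.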

[9] = test system: Echinochloa crus-galli (L.) P.BEAUV. (barnyardgrass); assay: as above; type: in vivo; conditions: Echinochloa crus-galli, 504 h; rice cropping systems, in-water applied (paddy), 35 g ae/ha, 21 DAA; may represent multiple trials; read-out: Visual Injury (%) ECHCG
Outline: as §2

melting point	SMILES	pest or weed control at 17.5 g/ha [1]	Visual Injury (%) SEBEX [2]	pest or weed control at 17.5 g/ha [3]	Visual Injury (%) AESSE [4]	Visual Injury (%) CYPIR [5]	Visual Injury (%) ECHCG [6]	Visual Injury (%) CYPES [7]	pest or weed control at 35 g/ha [8]	pest or weed control at 35 g/ha [9]
122 to 124 °C	CCOc1c(Cl)ccc(-c2nc(C(=O)OCc3ccccc3)c(Cl)c(N)c2F)c1F [Compound 41, benzyl 4-amino-3-chloro-6-(4-chloro-3-ethoxy-2-fluorophenyl)-5-fluoropicolinate]	90%	99%	95%	100%	100%	95%	100%	100%	95%
170 to 172 °C	CCOc1c(Cl)ccc(-c2nc(C(=O)OC)c(Cl)c(N)c2F)c1F [Compound A, methyl 4-amino-3-chloro-6-(4-chloro-3-ethoxy-2-fluorophenyl)-5-fluoropicolinate]	20%	20%	50%	0%	80%	60%	60%	60%	40%
